Where “and” joins values, the source holds several entries; their conditions need not be identical. Equal entries are not always repeated. Inconclusive results are not listed.

The test system of this experiment is MX-1 breast xenograft, nude mice, tumor weight T/C. The experiment in a line: NCI In Vivo Anticancer Drug Screen. Data for tumor model Human Mammary Carcinoma MX-1 Xenograft (intrarenal inoculation) in NU/NU Swiss (nude) mice. To be noted: endpoint: mean tumor weight change, higher = larger tumour. Put shortly: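 Tumor-bearing mice were treated with test compound alongside a vehicle-treated control group. Survival or tumor size was measured, and activity is expressed as the treated-group value divided by the control-group value.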
Background: Xenograft models place foreign cells or tissue in a host animal.

[1] abbreviates: dose: 75.0 mg/kg/injection, schedule: Q04DX003 (ip), vehicle: Klucel (hydroxypropylcellulose) (HPC).
The mark [2] stands for this setting: dose: 150.0 mg/kg/injection, schedule: Q04DX003 (ip), vehicle: Klucel (hydroxypropylcellulose) (HPC).
[3] abbreviates: dose: 100.0 mg/kg/injection, schedule: Q04DX003 (sc), vehicle: saline with Tween-80.
Setting [4] is: dose: 200.0 mg/kg/injection, schedule: Q04DX003 (sc), vehicle: saline with Tween-80.
Setting [5] is: dose: 400.0 mg/kg/injection, schedule: Q04DX003 (sc), vehicle: saline with Tween-80.
Where [6] appears, read: dose: 300.0 mg/kg/injection, schedule: Q04DX003 (sc), vehicle: Klucel (hydroxypropylcellulose) (HPC).
Setting [7] is: dose: 600.0 mg/kg/injection, schedule: Q04DX003 (sc), vehicle: Klucel (hydroxypropylcellulose) (HPC).
Setting [8] is: dose: 1200.0 mg/kg/injection, schedule: Q04DX003 (sc), vehicle: Klucel (hydroxypropylcellulose) (HPC).
The mark [9] stands for this setting: dose: 75.0 mg/kg/injection, schedule: Q04DX003 (sc), vehicle: Klucel (hydroxypropylcellulose) (HPC).
Setting [10] is: dose: 150.0 mg/kg/injection, schedule: Q04DX003 (sc), vehicle: Klucel (hydroxypropylcellulose) (HPC).
The mark [11] stands for this setting: dose: 50.0 mg/kg/injection, schedule: Q04DX003 (sc), vehicle: suspension in saline.
The mark [12] stands for this setting: dose: 200.0 mg/kg/injection, schedule: Q04DX003 (sc), vehicle: suspension in saline.
Setting [13] is: dose: 400.0 mg/kg/injection, schedule: Q04DX003 (sc), vehicle: suspension in saline.
The mark [14] stands for this setting: dose: 300.0 mg/kg/injection, schedule: Q04DX003 (sc), vehicle: saline with Tween-80.
Where [15] appears, read: dose: 600.0 mg/kg/injection, schedule: Q04DX003 (sc), vehicle: saline with Tween-80.
Where [16] appears, read: dose: 1200.0 mg/kg/injection, schedule: Q04DX003 (sc), vehicle: saline with Tween-80.

Take `COc1nc(C(Cl)(Cl)Cl)c(Cl)c(OC)c1Cl`: the T/C under setting [1] was 33 % of control; the T/C under setting [2] was -28 % of control; the T/C (dose: 150.0 mg/kg/injection, schedule: Q04DX003 (oral), vehicle: Klucel (hydroxypropylcellulose) (HPC)) was -33 % of control; the T/C (dose: 300.0 mg/kg/injection, schedule: Q04DX003 (ip), vehicle: Klucel (hydroxypropylcellulose) (HPC)) is 10 % of control; the T/C (dose: 300.0 mg/kg/injection, schedule: Q04DX003 (oral), vehicle: Klucel (hydroxypropylcellulose) (HPC)) is -15 % of control.

`Cc1ncc([N+](=O)[O-])n1CCSC(N)=O`: the T/C (dose: 50.0 mg/kg/injection, schedule: Q01DX010 (sc), vehicle: saline with Tween-80) is 103 % of control; the T/C (dose: 100.0 mg/kg/injection, schedule: Q01DX010 (sc), vehicle: saline with Tween-80) was 15 % of control; the T/C (dose: 200.0 mg/kg/injection, schedule: Q01DX009 (sc), vehicle: saline with Tween-80) was 17 % of control; the T/C (dose: 400.0 mg/kg/injection, schedule: Q01DX009 (sc), vehicle: saline with Tween-80) is 42 % of control; the T/C (dose: 400.0 mg/kg/injection, schedule: Q01DX010 (sc), vehicle: saline with Tween-80) was 77 % of control and 83 % of control and 86 % of control; the T/C (dose: 800.0 mg/kg/injection, schedule: Q01DX009 (sc), vehicle: saline with Tween-80) is 5 % of control.

On to `CCN1/C(=C/C=C/C=C\C=C\c2sc3ccc4ccccc4c3[n+]2CC)Sc2ccc3ccccc3c21`, for which the T/C under setting [3] was 104 % of control; the T/C under setting [4] is 89 % of control; the T/C under setting [5] is 101 % of control; the T/C (dose: 800.0 mg/kg/injection, schedule: Q04DX003 (sc), vehicle: saline with Tween-80) was 93 % of control.

With `CN(C(=S)S(=O)(=O)C12CC3CC(CC(C3)C1)C2)c1ccccc1`, where the note is “dose: 800.0 mg/kg/injection, schedule: Q04DX003 (sc), vehicle: Klucel (hydroxypropylcellulose) (HPC)”, the T/C was 204 % of control.

`CC1=CC(C)(C)Nc2ccc(CSc3ccccc3)cc21`: the T/C is, setting by setting: (dose: 25.0 mg/kg/injection, schedule: Q01DX010 (sc), vehicle: saline + Tween-80 + alcohol) 85 % of control; (dose: 50.0 mg/kg/injection, schedule: Q01DX010 (sc), vehicle: saline + Tween-80 + alcohol) 153 % of control; (dose: 100.0 mg/kg/injection, schedule: Q01DX010 (sc), vehicle: saline + Tween-80 + alcohol) 79 % of control and 102 % of control; (dose: 200.0 mg/kg/injection, schedule: Q01DX010 (sc), vehicle: saline + Tween-80 + alcohol) 89 % of control.

Take `CC1=CC2c3cccc4[nH]cc(c34)CC2N(C)C1` (configuration not stated): the T/C (dose: 12.5 mg/kg/injection, schedule: Q04DX003 (sc), vehicle: suspension in saline) was 153 % of control.

For `CC12CC(C(=O)O)C3(O)CC(C)(C1)CC(C)(C2)C3` (configuration not stated) (tested in a mixture with another compound), the T/C under setting [6] is 87 % of control, the T/C under setting [7] is 168 % of control and the T/C under setting [8] was 102 % of control.

As to `C/C=C/C=C1/OC(C)=C(C(C)=O)C1=O`, the T/C runs as follows: under setting [4], 104 % of control; under setting [5], 85 % of control.

In the case of `COC1CC2C=C(C)/C=C/C=C/C(=O)NC(c3ccccc3)C/C=C/CCC(O)CC(=O)C2=C1O` (configuration not stated), the T/C runs as follows: under setting [9], 41 % of control; under setting [10], 71 % of control; under setting [6], 50 % of control.

For `O=C1OC(C(O)CO)C(O)=C1O` (configuration not stated), the T/C by setting is: (dose: 200.0 mg/kg/injection, schedule: Q01DX010 (sc), vehicle: saline) 107 % of control; (dose: 400.0 mg/kg/injection, schedule: Q01DX010 (sc), vehicle: saline) 110 % of control; (dose: 1600.0 mg/kg/injection, schedule: Q01DX010 (sc), vehicle: saline) 121 % of control.

Take `O=c1[nH]c2c(ccc3cnccc32)c2c1CCC2`: the T/C was 71 % of control under setting [11], 70 % of control under setting [12] and 100 % of control under setting [13].

Take `C(C#CCN1CCOCC1)#CCN1CCOCC1`: the T/C reads like this: under setting [6], 72 % of control; under setting [7], 84 % of control; under setting [8], 61 % of control.

For the compound `BrC[P+](CBr)(CBr)CBr`, the T/C under setting [3] is 105 % of control, the T/C under setting [4] was 117 % of control and the T/C under setting [5] was 111 % of control.

On to `COc1ccc2[nH]c3c(c2c1)CCNC3CC(C)CCC=C(C)C` (configuration not stated), for which the T/C under setting [9] was 114 % of control and the T/C under setting [10] was 119 % of control.

Consider `O=c1[nH]c(=O)n(C2OC(CO)C(O)C2O)cc1F` (configuration not stated), for which the T/C (dose: 9.38 mg/kg/injection, schedule: Q01DX010 (sc), vehicle: saline) was 21 % of control.

For the compound `Cc1cccc(OCC(O)CN2CC2)c1` (configuration not stated), the T/C was 70 % of control (dose: 50.0 mg/kg/injection, schedule: Q04DX003 (ip), vehicle: saline with Tween-80); 58 % of control (dose: 100.0 mg/kg/injection, schedule: Q04DX003 (ip), vehicle: saline with Tween-80); 43 % of control (dose: 200.0 mg/kg/injection, schedule: Q04DX003 (ip), vehicle: saline with Tween-80).

Take `C=C(C)[C@]12CC(C)C34OC(/C=C\C=C\CCCCCCCCC)(O[C@@H]1[C@@H]3[C@@H]1O[C@]1(CO)[C@@H](O)[C@]1(O)C(=O)C(C)=C[C@@H]41)O2` (some centres not stated): the T/C reads like this: (dose: 6.0 mg/kg/injection, schedule: Q04DX003 (sc), vehicle: distilled water + alcohol) 102 % of control; (dose: 12.0 mg/kg/injection, schedule: Q04DX003 (sc), vehicle: distilled water + alcohol) 95 % of control.

Consider `ClC(Cl)(Cl)C1=NCc2nnn(Cc3ccccc3)c2N1`, for which the T/C under setting [14] was 92 % of control; the T/C under setting [15] was 61 % of control; the T/C under setting [16] is 66 % of control; the T/C (dose: 2400.0 mg/kg/injection, schedule: Q04DX003 (sc), vehicle: saline with Tween-80) is 101 % of control.

For the compound `CCCCCNc1ncnc2c(C)[nH]nc12`, the T/C was 80 % of control under setting [1] and 112 % of control under setting [2].

On to `NC(=S)c1ncn(C2OC(CO)C(O)C2O)c1N` (configuration not stated), for which the T/C runs as follows: (dose: 300.0 mg/kg/injection, schedule: Q04DX003 (sc), vehicle: suspension in saline) 50 % of control; (dose: 600.0 mg/kg/injection, schedule: Q04DX003 (sc), vehicle: suspension in saline) 89 % of control; (dose: 1200.0 mg/kg/injection, schedule: Q04DX003 (sc), vehicle: suspension in saline) 95 % of control; (dose: 2400.0 mg/kg/injection, schedule: Q04DX003 (sc), vehicle: suspension in saline) 99 % of control.

Take `C=C1C(=O)C23[C@H](O)C1CC[C@H]2[C@]12COC3(O)[C@@H](O)[C@@H]1C(C)(C)CC[C@@H]2O`: the T/C (dose: 12.5 mg/kg/injection, schedule: Q04DX003 (sc), vehicle: Klucel (hydroxypropylcellulose) (HPC)) was 52 % of control and the T/C (dose: 25.0 mg/kg/injection, schedule: Q04DX003 (sc), vehicle: Klucel (hydroxypropylcellulose) (HPC)) was 85 % of control.

Consider `C[C@]12CC[C@@H]3c4ccc(O)cc4CC[C@H]3[C@@H]1CC[C@@H]2O`, for which the T/C was 101 % of control under setting [10], 101 % of control under setting [6], 101 % of control under setting [7] and 104 % of control under setting [8].

On to `CN(CCN(C)C(=O)CCOS(C)(=O)=O)C(=O)CCOS(C)(=O)=O`, for which the T/C (dose: 50.0 mg/kg/injection, schedule: Q04DX003 (sc), vehicle: saline with Tween-80) is 41 % of control; the T/C under setting [11] was 16 % of control; the T/C under setting [3] was 1 % of control; the T/C (dose: 100.0 mg/kg/injection, schedule: Q04DX003 (sc), vehicle: suspension in saline) was -86 % of control; the T/C under setting [4] is -65 % of control; the T/C under setting [12] was -100 % of control. Moreover, the T/C under setting [13] was -100 % of control.

In the case of `NC(=S)N/N=C\c1ncccc1OCc1cccc(N)c1`, the T/C was 75 % of control under setting [15] and 152 % of control under setting [16].

On to `N#CC(=C1C=CC(=NO)C=C1)c1ccc(Cl)cc1`, for which the T/C is 89 % of control (dose: 150.0 mg/kg/injection, schedule: Q04DX003 (sc), vehicle: saline with Tween-80); 122 % of control under setting [14]; 156 % of control under setting [15].

The values above are taken from PubChem BioAssay AID296 (DTP/NCI, 2004).
